# Patent publication US20140275277A1, “PHARMACEUTICAL COMPOSITION OF S-KETAMINE HYDROCHLORIDE” (JANSSEN PHARMACEUTICA NV, priority 2013, published 2014)
# Experiments:
# [1] = test system: E. coli; assay: Full AET Challenge Test (Example 2); assay type: cell-based, Escherichia coli; details: after 28 days; spike 10^5-10^6 CFU/ml
# Method: (§1) The formulations listed in Table 3 were additionally subjected to a Full AET challenge, with results for the individual formulations are shown in Tables 5-8, below. Additionally, Table 9 below, provides results for a Full AET challenge of a reference formulation containing 0.00 mg/mL S-ketamine hydrochloride, denatonium benzoate (to mimic the taste of the S-ketamine HCl formulation(s)), and adjusted to pH 5.21 with 1N NaOH.
# [2] = test system: M. luteus; assay: Full AET Challenge Test (Example 2); assay type: cell-based, Micrococcus Luteus; details: after 28 days; spike 10^5-10^6 CFU/ml
# Method: as §1
# [3] = test system: A. brasiliensis; assay: Full AET Challenge Test (Example 2); assay type: cell-based, Aspergillus brasiliensis; details: after 28 days of incubation at room temperature; spike 10^5-10^6 CFU/ml
# Method: as §1
# [4] = test system: environmental isolate Staphylococcus haemolyticus; assay: Microbial challenge test (Example 1); assay type: cell-based; details: spike 10^5-10^6 CFU/ml
# Excerpt: A challenge test was initiated to investigate whether the formulation could prevent microorganisms from proliferating. The challenge test consisted of challenging the formulation with a prescribed inoculum of microorganisms. The inoculated formulation was then stored at room temperature and at specified time intervals a sample was withdrawn to count the microorganisms in the sample.
# [5] = test system: S. aureus; assay: Full AET Challenge Test (Example 2); assay type: cell-based, Staphylococcus aureus; details: after 28 days; spike 10^5-10^6 CFU/ml
# Method: as §1
# [6] = test system: P. aeruginosa; assay: Full AET Challenge Test (Example 2); assay type: cell-based, Pseudomonas aeruginosa; details: after 28 days; spike 10^5-10^6 CFU/ml
# Method: as §1
# [7] = test system: C. albicans; assay: Full AET Challenge Test (Example 2); assay type: cell-based, Candida albicans; details: after 28 days; spike 10^5-10^6 CFU/ml
# Method: as §1
structure (smiles),measurement,setting,value
"CN[C@]1(c2ccccc2Cl)CCCCC1=O.Cl [S-ketamine hydrochloride, (S)-2-(2-chlorophenyl)-2-(methylamino)cyclohexanone hydrochloride]","Effect on the original spike of Escherichia coli, in words",[1],strong antimicrobial properties
same,"Effect on the original spike of Micrococcus Luteus, in words",[2],strong antimicrobial properties
same,"Effect on the original spike of Aspergillus brasiliensis, in words",[3],some inhibitory activity
same,"Effect on the original spike of Staphylococcus haemolyticus, in words",[4],strong antimicrobial properties
same,"Effect on the original spike of Staphylococcus aureus, in words",[5],strong antimicrobial properties
same,"Effect on the original spike of Pseudomonas aeruginosa, in words",[6],strong antimicrobial properties
same,"Effect on the original spike of Candida albicans, in words",[7],strong antimicrobial properties
